Assay results published in patent US20140155334A1, “POLYPHOSPHATE AND PYROPHOSPHATE DERIVATIVE OF SACCHARIDES” (Université de Strasbourg, priority 2010, published 2014).

Target: T1, stripped human Hb (Homo sapiens, UniProt P68871+P69905)
T1 construct: from tissue; host or cells: human blood (red blood cell hemolysate, gel-filtered on Sephadex G-25 to remove BPG)
Assay: Oxygen equilibrium curves of stripped hemoglobin (Hemox Analyzer), P50 shift
Type: biochemical
Conditions: compound:Hb molar ratio 20:1, TES-saline buffer pH 7.4
Source text: Human blood was withdrawn from non-smoking healthy volunteers (CDD) in heparinized microtubes and treated according to the procedure described by Riggs. See A. Riggs, Methods Enzymol. 1981, 76, 5. Red blood cells were washed three times with 0.85% saline and lysed by the addition of 1 volume of purified water per volume of packed red blood cells. Hemolysate was kept cold and passed through a Sephadex G-25 column (1.0×20 cm) equilibrated with 0.1 M NaCl with 10^−5 M EDTA pH 7.5, to remove BPG. The concentration of oxy-Hb was assessed by UV-Vis spectrophotometry (ε=58400 M^−1 cm^−1 at 577 nm per oxy-Hb tetramer).
Solutions of the test compounds (supra, 100 mM) were prepared in purified water and the pH was adjusted to 7.0-7.4 prior to incubations with stripped Hb in a molar ratio of 20:1. The mixtures were diluted in 3 ml of TES-saline buffer (30 mM TES, 140 mM saline, pH 7.4) and oxygen equilibrium curves were measured using a Hemox Analyzer apparatus (TCS Scientific Corp., USA). The P50 values and Hill coefficients were calculated by linear regression analysis from data points obtained between 40 and 60% oxygen saturation.

T1 sequence (P68871 2-147 limits assumed): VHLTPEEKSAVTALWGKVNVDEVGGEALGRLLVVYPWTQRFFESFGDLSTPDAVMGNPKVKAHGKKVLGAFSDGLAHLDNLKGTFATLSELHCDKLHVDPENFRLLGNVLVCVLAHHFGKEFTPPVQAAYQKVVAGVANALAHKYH
T1 sequence (P69905 2-142 limits assumed): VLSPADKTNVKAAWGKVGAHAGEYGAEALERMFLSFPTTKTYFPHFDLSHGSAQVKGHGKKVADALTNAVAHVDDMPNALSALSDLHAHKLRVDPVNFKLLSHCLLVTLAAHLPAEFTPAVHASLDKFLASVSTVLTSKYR

Structure (SMILES)	relative effectiveness in lowering Hb affinity to oxygen (comparison in words)	shift of the Hb oxygenation curves (P50)
O=C([O-])[C@@H](COP(=O)([O-])[O-])OP(=O)([O-])[O-].[Na+].[Na+].[Na+].[Na+].[Na+] [BPG, 2,3-bisphospho-D-glyceric acid pentasodium salt, reference compound]	BPG<ITPP<IHP	
CO[C@H]1O[C@H](CO)[C@@H](OP(=O)(O)O)[C@H](OP(=O)(O)O)[C@H]1OP(=O)(O)O [Compound 8, 1-O-methyl-α-glucose 2,3,4-trisphosphate]		113%
CO[C@H]1O[C@H](CO)[C@@H](OP(=O)(O)O)[C@H](OP(=O)(O)O)[C@@H]1OP(=O)(O)O [Compound 10, 1-O-methyl-α-mannose 2,3,4-trisphosphate]	generally more effective than their corresponding glucose	144%
O=P(O)(O)O[C@H]1O[C@H](CO)[C@@H](OP(=O)(O)O)[C@H](OP(=O)(O)O)[C@H]1OP(=O)(O)O [Compound 29, α-glucose 1,2,3,4-tetrakisphosphate]		266%
O=P(O)(O)O[C@@H]1O[C@H](CO)[C@@H](OP(=O)(O)O)[C@H](OP(=O)(O)O)[C@H]1OP(=O)(O)O [Compound 30, β-glucose 1,2,3,4-tetrakisphosphate]		201%
O=P(O)(O)O[C@H]1O[C@H](CO)[C@@H](OP(=O)(O)O)[C@H](OP(=O)(O)O)[C@@H]1OP(=O)(O)O [Compound 31, α-mannose 1,2,3,4-tetrakisphosphate]	generally more effective than their corresponding glucose	
O=P(O)(O)O[C@@H]1O[C@H](CO)[C@@H](OP(=O)(O)O)[C@H](OP(=O)(O)O)[C@@H]1OP(=O)(O)O [Compound 32, β-mannose 1,2,3,4-tetrakisphosphate]	generally more effective than their corresponding glucose	
O=P(O)(O)O[C@H]1O[C@H](CO)[C@H](OP(=O)(O)O)[C@H](OP(=O)(O)O)[C@H]1OP(=O)(O)O [Compound 33, α-galactose 1,2,3,4-tetrakisphosphate]		226%
O=P(O)(O)O[C@@H]1O[C@H](CO)[C@H](OP(=O)(O)O)[C@H](OP(=O)(O)O)[C@H]1OP(=O)(O)O [Compound 34, β-galactose 1,2,3,4-tetrakisphosphate]		259%
CO[C@H]1O[C@H](COP(=O)(O)O)[C@@H](OP(=O)(O)O)[C@H](OP(=O)(O)O)[C@H]1OP(=O)(O)O [Compound 41, 1-O-methyl-α-glucose tetrakisphosphate]		264%
CO[C@H]1O[C@H](COP(=O)(O)O)[C@@H](OP(=O)(O)O)[C@H](OP(=O)(O)O)[C@@H]1OP(=O)(O)O [Compound 42, 1-O-methyl-α-mannose tetrakisphosphate]	less effective than the other mannose tetrakisphosphates derivatives	
O=P(O)(O)OC[C@H]1O[C@H](OP(=O)(O)O)[C@H](OP(=O)(O)O)[C@@H](OP(=O)(O)O)[C@@H]1OP(=O)(O)O [Compound 47, α-glucose pentakisphosphate]		466%
O=P(O)(O)OC[C@H]1O[C@H](OP(=O)(O)O)[C@@H](OP(=O)(O)O)[C@@H](OP(=O)(O)O)[C@@H]1OP(=O)(O)O [Compound 49, α-mannose pentakisphosphate]	generally more effective than their corresponding glucose	520%
O=P(O)(O)OC[C@H]1O[C@H](OP(=O)(O)O)[C@H](OP(=O)(O)O)[C@@H](OP(=O)(O)O)[C@H]1OP(=O)(O)O [Compound 51, α-galactose pentakisphosphate]		449%
O=P(O)(O)OC[C@H]1O[C@@H](O[C@H]2[C@H](OP(=O)(O)O)[C@@H](OP(=O)(O)O)C(OP(=O)(O)O)O[C@@H]2COP(=O)(O)O)[C@H](OP(=O)(O)O)[C@@H](OP(=O)(O)O)[C@H]1OP(=O)(O)O (some centres unmarked) [Compound 55, lactose octakisphosphate]		550%
O=P(O)(O)O[C@H]1[C@H](OP(=O)(O)O)[C@@H](OP(=O)(O)O)[C@H](OP(=O)(O)O)[C@@H](OP(=O)(O)O)[C@H]1OP(=O)(O)O [IHP, myo-inositol hexakisphosphate, reference compound]	BPG<ITPP<IHP	466%
O=P1([O-])OC2C3OP(=O)([O-])OP(=O)([O-])OC3C3OP(=O)([O-])OP(=O)([O-])OC3C2OP(=O)([O-])O1.[Na+].[Na+].[Na+].[Na+].[Na+].[Na+] (centres unmarked) [ITPP, myo-inositol trispyrophosphate hexasodium salt, reference compound]	BPG<ITPP<IHP	
